In paper PMC5915530, “Immunosilencing peptides by stereochemical inversion and sequence reversal: retro-D-peptides” (Scientific Reports, 2018):
Non-standard residues stand in square brackets, D forms with d. Residues, ends and D or L forms follow the SMILES beside them.

Legend:
[1] = demonstrated earlier by the authors' laboratory; ref 21 (printed for retro-D-THR); cited from earlier work
Text: (§1) We have applied this previously described strategy to a family of peptide BBB shuttles (H2N-HAIYPRH-CONH2 and H2N-THRPPMWSPVWP-CONH2[14], namely HAI and THR peptides, respectively). BBB shuttles are molecular entities of diverse origin, e.g. synthetic or natural peptides, which have the capacity to cross the blood-brain barrier (BBB) and, when covalently conjugated to drugs unable to cross the BBB unaided, can deliver them into the central nervous system (CNS)[15]. Those that cross through receptor-mediated transcytosis are also included in the term ‘molecular Trojan horses’[16],[17]. Although ...

[2] = Protease resistance; assay type: in vitro ADME; details: as stated in abstract
Protocol: (§2) Data were processed using GraphPad Prism 6.0 software. All results are presented as mean + SEM. Data from human serum stability assays were analyzed as non-linear one-phase exponential decay model for L-peptides and as standard linear model with zero slope for D-peptides. Deviations from a value of 100 at each dilution point were assessed using a linear model, in which group and interaction were included as covariates. In immune response studies, each dilution point (in ELISAs) was analyzed by a Mann-Whitney test to assess differences between S0 with S1 or S2. In both cases, 5% was set as a threshold for statistical significance.

[3] = tested on: BALB/c mice; test: Mouse immunization with unconjugated peptides, titration of peptide-specific antibodies in serum by ELISA; assay type: in vivo; details: seven i.p. doses of 50 μg, BALB/c mice (four per group), CFA first dose, IFA boosters, PBS last, ELISA on peptide-BSA conjugate, serum diluted from 1:100, anti-Mouse IgG-HRP, read at 450 nm, Fig. 3a, b
Text: To date, several studies have used D-peptides as tools for vaccine development. In these cases the peptides have been conjugated to large supramolecular entities, e.g. KLH and small unilamelar liposomes containing monophosphoryl lipid A[23],[24]. Nevertheless, the use of retro-D-peptides as therapeutics was controversial twenty years ago[25],[26]. Thus, to shed light on the immunogenicity of D-peptides and add further value to these compounds, we evaluated the immunological responses activated by retro-D-THR and retro-D-HAI peptides and compared them to that of their parent peptides. For this purpose, peptides (not conjugated) were i.p. administered to mice, and antibody titration was used as parameter to evaluate immunological (humoral) response by ELISA.
Four groups of four BALB/c mice were treated with either one of the parent peptides or their retro-D-version. Each mouse received seven doses i.p. of 50 μg of peptide. Complete Freund’s[49] adjuvant (CFA) was administered in the first dose, incomplete Freund’s adjuvant (IFA) in the subsequent five booster injections, and PBS in the last one. Bleedings for the titration of specific antibody production were performed before the first dose (time zero bleeding) and five days after the fourth and last dose (Supplementary Scheme 1). The peptide-specific humoral response was quantified by ELISA. MaxiSorp plates (Nunc) were treated with 0.1 mL of the corresponding peptide-BSA conjugate (1 μg) per well in carbonate buffer, overnight at 4 °C (Supplementary Fig. 6b). Afterwards, plates were blocked with 0.2 mL PBS-Tween 20 (T20) containing 2% of milk powder for 2 h a 37 °C. Each sample serum was consecutively diluted 1/2 (starting by dilution 1:100) in PBS-T20 and incubated for 1 h at 37 °C. Incubation with a secondary antibody (dil. 1/5,000) anti-Mouse IgG-HRP (ref. R1253HRP; batch 26922; Acris) was left for 1 h at 37 °C. Washes (x3) with PBST (300 μl/well) were applied after each antibody incubation. Finally, TMB (100 μl/well) was added and left for 30 min, when the stop solution (100 μl, HClaq 1 N) blocked the colorimetric reaction. Plates were read at 450 nm (Fig. 3a–c). […]
as §2, with “All results are presented as mean + SEM.” left out, “In both cases, 5% was set as a threshold for statistical significance.” left out

[4] = tested on: blood-brain barrier (BBB); details: parent versions, in several studies; ref not given; cited from earlier work
Text: as §1

## CC[C@@H](C)[C@@H](NC(=O)[C@@H](Cc1ccc(O)cc1)NC(=O)[C@H]1CCCN1C(=O)[C@@H](CCCNC(=N)N)NC(=O)[C@H](N)Cc1c[nH]cn1)C(=O)N[C@H](C)C(=O)N[C@H](Cc1c[nH]cn1)C(N)=O [retro-D-HAI]
[1]
  protease-resistance: protease-resistance
[2]
  protease resistance: protease-resistant
[3]
  immunogenicity (peptide-specific humoral response, antibody titration): not immunogenic per se
[3]; listed as H2N-hrpyiah-CONH2
  immunogenicity (peptide-specific humoral response, antibody titration): much less immunogenic than the parent peptide

## CSCC[C@@H](NC(=O)[C@@H](Cc1c[nH]c2ccccc12)NC(=O)[C@@H](CO)NC(=O)[C@H]1CCCN1C(=O)[C@H](NC(=O)[C@@H](Cc1c[nH]c2ccccc12)NC(=O)[C@H]1CCCN1)C(C)C)C(=O)N1CCC[C@@H]1C(=O)N1CCC[C@@H]1C(=O)N[C@H](CCCNC(=N)N)C(=O)N[C@H](Cc1c[nH]cn1)C(=O)N[C@@H](C(N)=O)[C@H](C)O [retro-D-THR] (H-[dP][dW][dV][dP][dS][dW][dM][dP][dP][dR][dH][dT]-NH2)
[1]
  protease-resistance: protease-resistance
[2]
  protease resistance: protease-resistant
[3]
  immunogenicity (peptide-specific humoral response, antibody titration): not immunogenic per se
[3]; listed as H2N-pwvpswmpprht-CONH2
  immunogenicity (peptide-specific humoral response, antibody titration): much less immunogenic than the parent peptide

## H2N-HAIYPRH-CONH2 [parent L-peptide BBB shuttle, H2N-HAIYPRH-CONH2]
[4]
  BBB permeability: efficient BBB permeability

## H2N-THRPPMWSPVWP-CONH2 (H-THRPPMWSPVWP-NH2) [parent L-peptide BBB shuttle, H2N-…-CONH2]
[4]
  BBB permeability: efficient BBB permeability
